This note sets out measurements from ChEMBL document CHEMBL1155221, “Identification of novel indanylsulfonamide guanylhydrazones as potent 5-HT6 serotonin receptor antagonists” (J Med Chem, 2009).

Test [1] has as its target 5-hydroxytryptamine receptor 6 (Homo sapiens, UniProt P50406). Put plainly: Antagonist activity at human 5HT6 receptor expressed in HEK293F cells assessed as inhibition of 5-HT-stimulated cAMP production at […] after 30 mins by HTRF assay relative to (+/-)-6-chloro-N-(3-(1-methylpyrrolidin-3-yl)-1H-inden-5-yl)imidazo[2,1-b]thiazole-5-sulfonamide. Type of test: functional, cell-based. In general terms: Changes in cAMP serve as a functional read-out for many G protein-coupled receptors.

Test [2] addresses T1, Adrenergic receptor alpha-2 (Homo sapiens, UniProt P08913+P18825+P18089).
T1 sequence (P08913 whole entry): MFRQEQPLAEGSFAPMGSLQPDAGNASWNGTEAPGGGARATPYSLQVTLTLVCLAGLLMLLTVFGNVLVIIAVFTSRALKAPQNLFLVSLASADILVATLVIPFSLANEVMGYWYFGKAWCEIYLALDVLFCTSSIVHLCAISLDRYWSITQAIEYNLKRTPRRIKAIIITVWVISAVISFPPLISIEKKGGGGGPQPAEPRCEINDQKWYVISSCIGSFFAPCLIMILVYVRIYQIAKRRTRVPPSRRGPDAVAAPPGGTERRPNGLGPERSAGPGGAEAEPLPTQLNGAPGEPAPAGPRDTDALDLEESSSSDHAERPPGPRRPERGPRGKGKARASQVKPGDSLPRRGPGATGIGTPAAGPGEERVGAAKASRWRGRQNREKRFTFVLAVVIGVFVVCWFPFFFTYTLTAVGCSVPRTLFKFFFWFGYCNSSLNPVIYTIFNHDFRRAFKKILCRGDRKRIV
T1 sequence (P18825 whole entry): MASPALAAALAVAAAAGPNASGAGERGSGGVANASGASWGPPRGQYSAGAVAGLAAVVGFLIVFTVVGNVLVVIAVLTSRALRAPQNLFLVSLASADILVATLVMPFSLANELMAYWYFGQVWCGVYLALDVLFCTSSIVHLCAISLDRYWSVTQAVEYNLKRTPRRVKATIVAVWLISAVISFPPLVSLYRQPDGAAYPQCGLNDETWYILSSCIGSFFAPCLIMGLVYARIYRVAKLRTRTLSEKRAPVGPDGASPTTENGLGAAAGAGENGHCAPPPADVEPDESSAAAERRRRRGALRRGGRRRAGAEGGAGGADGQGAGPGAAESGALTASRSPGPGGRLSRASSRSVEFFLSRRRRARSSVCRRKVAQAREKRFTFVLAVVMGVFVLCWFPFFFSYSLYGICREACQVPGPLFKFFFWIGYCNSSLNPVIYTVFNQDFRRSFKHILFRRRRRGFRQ
T1 sequence (P18089 whole entry): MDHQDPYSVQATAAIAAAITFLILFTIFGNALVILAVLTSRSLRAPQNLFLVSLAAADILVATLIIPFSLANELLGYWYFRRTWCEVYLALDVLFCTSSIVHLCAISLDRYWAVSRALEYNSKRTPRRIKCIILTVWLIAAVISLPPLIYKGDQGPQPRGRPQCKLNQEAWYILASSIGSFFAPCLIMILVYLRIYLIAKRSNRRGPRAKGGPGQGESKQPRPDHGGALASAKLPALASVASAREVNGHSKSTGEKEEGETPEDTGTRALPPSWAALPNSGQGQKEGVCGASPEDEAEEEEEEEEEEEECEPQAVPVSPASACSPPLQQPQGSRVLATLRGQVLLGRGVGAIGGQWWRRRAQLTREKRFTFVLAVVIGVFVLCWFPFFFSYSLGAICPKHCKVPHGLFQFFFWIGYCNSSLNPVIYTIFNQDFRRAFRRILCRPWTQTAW
Nature of the test: Inhibition of human alpha 2 adrenoceptor.

Test [3] deals with T2, 5-hydroxytryptamine receptor 2C (Homo sapiens, UniProt P28335).
T2 sequence (P28335 whole entry): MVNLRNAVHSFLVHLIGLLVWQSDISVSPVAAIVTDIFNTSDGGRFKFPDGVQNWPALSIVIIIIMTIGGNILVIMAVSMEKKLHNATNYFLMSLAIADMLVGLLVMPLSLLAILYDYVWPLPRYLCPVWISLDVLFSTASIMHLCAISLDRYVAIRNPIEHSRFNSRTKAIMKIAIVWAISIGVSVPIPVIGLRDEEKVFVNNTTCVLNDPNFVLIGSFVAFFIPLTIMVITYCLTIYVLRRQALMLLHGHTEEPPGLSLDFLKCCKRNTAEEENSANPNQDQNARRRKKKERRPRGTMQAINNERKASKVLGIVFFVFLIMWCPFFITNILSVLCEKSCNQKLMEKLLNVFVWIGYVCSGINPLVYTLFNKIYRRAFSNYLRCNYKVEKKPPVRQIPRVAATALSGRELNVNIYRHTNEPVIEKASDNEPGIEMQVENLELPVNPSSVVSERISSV
Put plainly: Inhibition of human 5HT2C receptor.

Structures are written as SMILES.

5-hydroxytryptamine receptor 6, sequence (P50406 whole entry): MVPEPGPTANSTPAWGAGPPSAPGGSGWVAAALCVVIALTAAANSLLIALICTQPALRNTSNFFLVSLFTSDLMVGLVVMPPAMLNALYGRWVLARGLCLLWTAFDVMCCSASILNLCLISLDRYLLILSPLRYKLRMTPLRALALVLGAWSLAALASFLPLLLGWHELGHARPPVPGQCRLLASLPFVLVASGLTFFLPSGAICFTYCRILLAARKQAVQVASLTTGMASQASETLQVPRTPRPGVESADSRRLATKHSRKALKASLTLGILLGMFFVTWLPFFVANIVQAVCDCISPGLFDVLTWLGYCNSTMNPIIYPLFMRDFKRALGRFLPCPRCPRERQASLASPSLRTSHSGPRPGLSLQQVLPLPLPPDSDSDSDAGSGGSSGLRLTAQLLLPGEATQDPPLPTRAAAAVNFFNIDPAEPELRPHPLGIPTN

Turning to `CC1Cc2ccc(NS(=O)(=O)c3c(Cl)nc4sccn34)cc2/C1=N/NC(=N)N.Cl` (racemic), the Imax in test [1] turned out to be 157%. The IC50 in test [2] and in test [3] was more than 1 µM each time.

`Cl.N=C(N)N/N=C1\CCc2ccc(NS(=O)(=O)c3c(Cl)nc4sccn34)cc21`: the Imax in test [1] came to 127%. The IC50 was more than 1 ×10⁴ nM in test [2] and more than 10 µM in test [3].

`O=S(=O)(Nc1ccc2c(c1)/C(=N/NC1=NCCN1)CC2)c1c(Cl)nc2sccn12`: in test [1], the Imax is 173%. Further, the IC50 is more than 1 ×10⁴ nM in test [2] and more than 10 µM in test [3].
